Results as given in patent publication EP0908457B1, “3-(1,2-benzisothiazol- and isoxazol-5-Y1)-2,4(1H,3H)-pyrimidinedione or thione and 3-(1,2-benzisothiazol- and isoxazol-5-y1)-4(3H)-pyrimidinone or thione herbicidal agents” (BASF AKTIENGESELLSCHAFT, priority 1997, dated 1999).

Tests used:
[1] = test system: Echinochloa oryzoides (Ard.) Fritsch.; assay: Preemergence weed control under flooded paddy conditions, ECHORC (Watergrass (Calif.)); format: in vivo; details: flooded paddy; for herbicidal effect rating, ECHORC: meaning of each grade not given here
Cyperus iria = assay: Preemergence weed control under flooded paddy conditions, CYPIR (Rice Flatsedge); format: in vivo; details: flooded paddy; for herbicidal effect rating, CYPIR: meaning of each grade not given here
[2] = test system: Cyperus serotinus, Rottb.; assay: Preemergence weed control under flooded paddy conditions, CYPSE (Flatsedge); format: in vivo; for herbicidal effect rating, CYPSE: meaning of each grade not given here
[3] = test system: Monochoria vaginalis, Presl.; assay: Preemergence weed control under flooded paddy conditions, MOOVA (Monochoria); format: in vivo; details: flooded paddy; for herbicidal effect rating, MOOVA: meaning of each grade not given here
Sagittaria pygmaea, L. = assay: Preemergence weed control under flooded paddy conditions, SAGPY (Arrowhead (Pygmaea)); format: in vivo; details: flooded paddy; for herbicidal effect rating, SAGPY: meaning of each grade not given here
[4] = test system: Oryza sativa, (L.) Tebonnet; assay: Rice tolerance to post-transplant applications under flooded paddy conditions (Example 187), ORYSAT (Rice, Tebonnet); details: for ORYSAT herbicidal effect rating / ORYSAT herbicidal rating (rice tolerance) / herbicidal effect rating, ORYSAT (rice tolerance): rated three to four weeks after treatment; for herbicidal effect rating ORYSAT: rated 3-4 weeks after treatment; for herbicidal effect rating ORYSAT: meaning of each grade not given here
[5] = Rate 0.0320 kg/ha, preemergence, rated three to four weeks after treatment
[6] = Rate 0.0620 kg/ha, preemergence, rated three to four weeks after treatment
[7] = Rate 0.1250 kg/ha, preemergence, rated three to four weeks after treatment
[8] = Rate 0.2500 kg/ha, preemergence, rated three to four weeks after treatment
[9] = Rate 0.5000 kg/ha, preemergence, rated three to four weeks after treatment
[10] = Rate 0.0320 kg/ha, preemergence, rated 3-4 weeks after treatment
[11] = Rate 0.0620 kg/ha, preemergence, rated 3-4 weeks after treatment
[12] = Rate 0.1250 kg/ha, preemergence, rated 3-4 weeks after treatment
[13] = Rate 0.2500 kg/ha, preemergence, rated 3-4 weeks after treatment
[14] = 0.0320 kg/ha, preemergence, rated three to four weeks after treatment
[15] = 0.0620 kg/ha, preemergence, rated three to four weeks after treatment
[16] = 0.1250 kg/ha, preemergence, rated three to four weeks after treatment
[17] = 0.2500 kg/ha, preemergence, rated three to four weeks after treatment
[18] = 0.0313 kg/ha, preemergence weeds, rated three to four weeks after treatment
[19] = 0.0625 kg/ha, preemergence weeds, rated three to four weeks after treatment
[20] = 0.1250 kg/ha, preemergence weeds, rated three to four weeks after treatment
[21] = 0.2500 kg/ha, preemergence weeds, rated three to four weeks after treatment

C=Cc1nsc2ccc(-n3c(=O)cc(C(F)(F)F)n(C)c3=O)cc12 [Example 276, 2,4(1H,3H)-Pyrimidinedione, 1-methyl-6-(trifluoromethyl)-3-(3-vinyl-1,2-benzisothiazol-5-yl)-]
ECHORC herbicidal effect rating [1, 5]: 4.0 | ECHORC herbicidal effect rating [1, 6]: 7.7 | ECHORC herbicidal effect rating [1, 7]: 7.9 | ECHORC herbicidal effect rating [1, 8]: 9.0 | ECHORC herbicidal effect rating [1, 9]: 9.0 | CYPIR herbicidal effect rating (Cyperus iria; [5]): 8.0 | CYPIR herbicidal effect rating (Cyperus iria; [6]): 9.0 | CYPIR herbicidal effect rating (Cyperus iria; [7]): 9.0 | CYPIR herbicidal effect rating (Cyperus iria; [8]): 9.0 | CYPIR herbicidal effect rating (Cyperus iria; [9]): 9.0 | CYPSE herbicidal effect rating [2, 5]: 2.0 | CYPSE herbicidal effect rating [2, 6]: 2.0 | CYPSE herbicidal effect rating [2, 7]: 8.0 | CYPSE herbicidal effect rating [2, 8]: 7.0 | CYPSE herbicidal effect rating [2, 9]: 7.0 | MOOVA herbicidal effect rating [3, 5]: 9.0 | MOOVA herbicidal effect rating [3, 6]: 9.0 | MOOVA herbicidal effect rating [3, 7]: 9.0 | MOOVA herbicidal effect rating [3, 8]: 9.0 | MOOVA herbicidal effect rating [3, 9]: 9.0 | SAGPY herbicidal effect rating (Sagittaria pygmaea, L.; [5]): 8.0 | SAGPY herbicidal effect rating (Sagittaria pygmaea, L.; [6]): 9.0 | SAGPY herbicidal effect rating (Sagittaria pygmaea, L.; [7]): 9.0 | SAGPY herbicidal effect rating (Sagittaria pygmaea, L.; [8]): 9.0 | SAGPY herbicidal effect rating (Sagittaria pygmaea, L.; [9]): 9.0 | ORYSAT herbicidal effect rating ([4]; Rate 0.0320 kg/ha): 4.0 | ORYSAT herbicidal effect rating ([4]; Rate 0.0620 kg/ha): 5.0 | ORYSAT herbicidal effect rating ([4]; Rate 0.1250 kg/ha): 6.0 | ORYSAT herbicidal effect rating ([4]; Rate 0.2500 kg/ha): 7.0 | ORYSAT herbicidal effect rating ([4]; Rate 0.5000 kg/ha): 9.0

C=CCOCC(CC)(COCC=C)COC(=O)COc1ccc(C)cc1-c1nsc2ccc(-n3c(=O)cc(C(F)(F)F)n(C)c3=O)cc12 [Example 521, Acetic acid, {{2-{5-[3,6-dihydro-3-methyl-2,6-dioxo-4-(trifluoromethyl)-1(2H)-pyrimidinyl]-1,2-benzisothiazol-3-yl}-p-tolyl}oxy}-, 2,2-bis-[(allyloxy)methyl]butyl ester]
herbicidal effect rating, ECHORC [1, 10]: 2.0 | herbicidal effect rating, ECHORC [1, 11]: 2.0 | herbicidal effect rating, ECHORC [1, 12]: 4.0 | herbicidal effect rating, ECHORC [1, 13]: 4.0 | herbicidal effect rating, CYPIR (Cyperus iria; [10]): 0.0 | herbicidal effect rating, CYPIR (Cyperus iria; [11]): 0.0 | herbicidal effect rating, CYPIR (Cyperus iria; [12]): 0.0 | herbicidal effect rating, CYPIR (Cyperus iria; [13]): 2.0 | herbicidal effect rating, CYPSE [2, 10]: 0.0 | herbicidal effect rating, CYPSE [2, 11]: 0.0 | herbicidal effect rating, CYPSE [2, 12]: 0.0 | herbicidal effect rating, CYPSE [2, 13]: 0.0 | herbicidal effect rating, MOOVA [3, 10]: 6.0 | herbicidal effect rating, MOOVA [3, 11]: 9.0 | herbicidal effect rating, MOOVA [3, 12]: 9.0 | herbicidal effect rating, MOOVA [3, 13]: 9.0 | herbicidal effect rating, SAGPY (Sagittaria pygmaea, L.; [10]): 0.0 | herbicidal effect rating, SAGPY (Sagittaria pygmaea, L.; [11]): 0.0 | herbicidal effect rating, SAGPY (Sagittaria pygmaea, L.; [12]): 0.0 | herbicidal effect rating, SAGPY (Sagittaria pygmaea, L.; [13]): 0.0 | herbicidal effect rating ORYSAT ([4]; Rate 0.0320 kg/ha): 0.0 | herbicidal effect rating ORYSAT ([4]; Rate 0.0620 kg/ha): 0.0 | herbicidal effect rating ORYSAT ([4]; Rate 0.1250 kg/ha): 0.0 | herbicidal effect rating ORYSAT ([4]; Rate 0.2500 kg/ha): 0.0

Cn1c(C(F)(F)F)cc(=O)n(-c2ccc3snc(C(=O)NS(=O)(=O)Cc4ccc(Cl)cc4)c3c2)c1=O [Example 468, 1,2-Benzisothiazole-3-carboxamide, N-[(p-chlorobenzyl)sulfonyl]-5-[3,6-dihydro-3-methyl-2,6-dioxo-4-(trifluoromethyl)-1(2H)-pyrimidinyl]-]
ECHORC herbicidal rating [1, 14]: 7.0 | ECHORC herbicidal rating [1, 15]: 7.0 | ECHORC herbicidal rating [1, 16]: 9.0 | ECHORC herbicidal rating [1, 17]: 9.0 | CYPIR herbicidal rating (Cyperus iria; [14]): 5.0 | CYPIR herbicidal rating (Cyperus iria; [15]): 6.0 | CYPIR herbicidal rating (Cyperus iria; [16]): 6.0 | CYPIR herbicidal rating (Cyperus iria; [17]): 5.0 | CYPSE herbicidal rating [2, 14]: 2.0 | CYPSE herbicidal rating [2, 15]: 6.0 | CYPSE herbicidal rating [2, 16]: 7.0 | CYPSE herbicidal rating [2, 17]: 5.0 | MOOVA herbicidal rating [3, 14]: 5.0 | MOOVA herbicidal rating [3, 15]: 6.0 | MOOVA herbicidal rating [3, 16]: 7.0 | MOOVA herbicidal rating [3, 17]: 5.0 | SAGPY herbicidal rating (Sagittaria pygmaea, L.; [14]): 3.0 | SAGPY herbicidal rating (Sagittaria pygmaea, L.; [15]): 4.0 | SAGPY herbicidal rating (Sagittaria pygmaea, L.; [16]): 4.0 | SAGPY herbicidal rating (Sagittaria pygmaea, L.; [17]): 5.0 | ORYSAT herbicidal rating (rice tolerance) ([4]; 0.0320 kg/ha): 3.0 | ORYSAT herbicidal rating (rice tolerance) ([4]; 0.0620 kg/ha): 3.0 | ORYSAT herbicidal rating (rice tolerance) ([4]; 0.1250 kg/ha): 5.0 | ORYSAT herbicidal rating (rice tolerance) ([4]; 0.2500 kg/ha): 5.0

Cc1ccc(OCC(=O)NS(C)(=O)=O)c(-c2nsc3ccc(-n4c(=O)cc(C(F)(F)F)n(C)c4=O)cc23)c1 [Example 121, N-{{{2-{5-[3,6-Dihydro-3-methyl-2,6-dioxo-4-(trifluoromethyl)-1(2H)-pyrimidinyl]-1,2-benzisothiazol-3-yl}-p-tolyl}oxy}acetyl}methanesulfonamide]
herbicidal effect rating, ECHORC [1, 18]: 6.0 | herbicidal effect rating, ECHORC [1, 19]: 7.0 | herbicidal effect rating, ECHORC [1, 20]: 8.0 | herbicidal effect rating, ECHORC [1, 21]: 9.0 | herbicidal effect rating, CYPIR (Cyperus iria; [18]): 0.0 | herbicidal effect rating, CYPIR (Cyperus iria; [19]): 0.0 | herbicidal effect rating, CYPIR (Cyperus iria; [20]): 2.0 | herbicidal effect rating, CYPIR (Cyperus iria; [21]): 4.0 | herbicidal effect rating, CYPSE [2, 18]: 0.0 | herbicidal effect rating, CYPSE [2, 19]: 0.0 | herbicidal effect rating, CYPSE [2, 20]: 2.0 | herbicidal effect rating, CYPSE [2, 21]: 4.0 | herbicidal effect rating, MOOVA [3, 18]: 9.0 | herbicidal effect rating, MOOVA [3, 19]: 9.0 | herbicidal effect rating, MOOVA [3, 20]: 9.0 | herbicidal effect rating, MOOVA [3, 21]: 9.0 | herbicidal effect rating, SAGPY (Sagittaria pygmaea, L.; [18]): 0.0 | herbicidal effect rating, SAGPY (Sagittaria pygmaea, L.; [19]): 0.0 | herbicidal effect rating, SAGPY (Sagittaria pygmaea, L.; [20]): 0.0 | herbicidal effect rating, SAGPY (Sagittaria pygmaea, L.; [21]): 0.0 | herbicidal effect rating, ORYSAT (rice tolerance) ([4]; 0.0313 kg/ha): 3.0 | herbicidal effect rating, ORYSAT (rice tolerance) ([4]; 0.0625 kg/ha): 4.0 | herbicidal effect rating, ORYSAT (rice tolerance) ([4]; 0.1250 kg/ha): 6.0 | herbicidal effect rating, ORYSAT (rice tolerance) ([4]; 0.2500 kg/ha): 9.0
